From patent US8143254B2, “Methods for modulating ion channels” (Cornell Research Foundation, Inc., priority 2005, dated 2012)

Target: T1, Kv3.4 (UniProt Q63734)
T1 construct: IC50; other: Kv3.4, logistic dose response fit; effect on Kv3.4 currents; other: 1 mM, bath applied; slope of dose response curve; other: Kv3.4
T1 sequence (Q63734 1-625): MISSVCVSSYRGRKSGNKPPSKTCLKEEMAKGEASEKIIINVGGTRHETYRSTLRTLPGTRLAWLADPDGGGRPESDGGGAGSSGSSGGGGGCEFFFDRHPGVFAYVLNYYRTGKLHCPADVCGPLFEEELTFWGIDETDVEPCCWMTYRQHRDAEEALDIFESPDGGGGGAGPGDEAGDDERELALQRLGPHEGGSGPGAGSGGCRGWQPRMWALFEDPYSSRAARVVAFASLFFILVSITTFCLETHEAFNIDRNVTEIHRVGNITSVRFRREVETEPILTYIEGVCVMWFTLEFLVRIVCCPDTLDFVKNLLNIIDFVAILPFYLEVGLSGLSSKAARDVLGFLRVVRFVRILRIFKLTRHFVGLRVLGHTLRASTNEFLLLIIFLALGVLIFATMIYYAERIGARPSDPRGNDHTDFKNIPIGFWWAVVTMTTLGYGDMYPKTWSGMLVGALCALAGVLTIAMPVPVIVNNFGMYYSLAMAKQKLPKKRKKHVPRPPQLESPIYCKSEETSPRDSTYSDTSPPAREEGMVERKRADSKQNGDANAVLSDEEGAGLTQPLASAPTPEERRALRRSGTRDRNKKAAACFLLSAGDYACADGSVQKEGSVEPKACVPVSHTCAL
Assay: TEVC of X. laevis oocytes expressing Kv3.4
Format: cell-based
Settings: for slope of dose response curve: Kv3.4; for IC50: Kv3.4, logistic dose response fit; for effect on Kv3.4 currents: 1 mM, bath applied
Text: Kv2.1 mutants were constructed using the QuickChange Multi Site-Directed Mutagenesis Kit (Stratagene, La Jolla, Calif.). […] For oocyte expression, Kv3.4 was in pBF1, Kv4.2 was in pRAT. cRNA transcripts were produced from SacII-linearized (Kv2.1), Mlullinearized (Kv3.4) and Not1-linearized (Kv4.2) DNA templates using the T3 (Kv2.1), SP6 (Kv3.4) and T7 (Kv4.2) mMessage mMachine kits (Ambion, Austin, Tex.). cRNA was quantified by spectrophotometry and its size integrity verified by gel electophoresis. Defolliculated stage V and VI Xenopus laevis oocytes (purchased from Nasco, Grand Island, N.Y.) were injected with 5 ng of cRNA encoding Kv2.1, Kv3.4 or Kv4.2. Chinese Hamster Ovary (CHO) cells were transfected with 0.25 μg Kv2.1 cDNA, 2 μg blank plasmid and 2 μg Green fluorescent Protein in pBOB using Supetfect transfection reagent (Qiagen) 24 hours before whole-cell voltage clamp studies.
Oocytes were bathed in a small-volume Warner oocyte bath and viewed with a Fisher dissection microscope. Bath solution for whole-cell oocyte recordings was (in mM): 96 NaCl, 4 KCl, 0.7 MgCl2, 1 CaCl2, 10 HEPES (pH 7.4); whole-cell oocyte TEVC pipettes were of 0.2-2 M resistance when filled with 3 M KCl. Experiments were performed 24-48 hours after cRNA injection. For assessment of current-voltage relationships in the absence or presence of dabco derivatives, oocytes were held at −80 mV, stepped for 2 seconds at voltages between −80 mV and +60 mV in 20 mV steps (Kv2.1) or between −80 and +50 mV in 10 mV steps (Kv3.4), then held for 500 ms at −40 mV before returning to the holding potential. For assessment of block during wash-in of dabco derivatives at a single voltage, oocytes were held at −80 mV, and repetitively stepped to 0 mV for 2 s with an interpulse interval of 10 s or 60 s as indicated. A range of concentrations of dabco or dabco derivatives were washed in via the bath solution during repetitive single-voltage pulses (after an initial period of 5 pulses with control solution to ensure current stabilization) until equilibrium block was achieved, to establish dose-responses. […] Washout was performed after the highest concentration of blocker was washed in. In cases where washout was achieved, only those recordings in which current returned to within 10% of original current level were used for construction of dose-response curves. […] As controls for this protection analysis, JC638.2a or MTSET were washed in alone until equilibrium block, then washed out.
Data analysis: Current-voltage relationships were obtained by measuring peak current during depolarizing pulses. Inhibition constants for DABCO blockers were calculated after generating a dose response curve by fitting with a logistic dose-response function y=A2+[A1−A2/1+(x/x0)^p], where A1 is the maximum response plateau, A2 is the minimum response plateau, x is drug concentrator, x0 is the IC50, and p the Hill slope. Data analysis was performed using […] 9 (Axon Instruments, Foster City, Calif.) and tabulated in Excel 5.0. Graphs were generated using Origin 6.1. Data are expressed as mean±SEM, with n specifying the number of independent experiments. Statistical significance was assessed by one-way ANOVA with p<0.05 being indicative of significance.

Compound | slope of dose response curve | IC50 [µM] | effect on Kv3.4 currents
CCCCCCCCCCCC[N+]12CCN(CC1)CC2 [JE188, 1-aza-4-azonia-4-dodecylbicyclo[2.2.2]octane] | 0.7±0.1 | 34.2 ± 10 | –
c1cc(C[N+]23CCN(CC2)CC3)ccc1C[N+]12CCN(CC1)CC2 [JC638.2α, α,α′-[bis(4-aza-1-azoniabicyclo[2.2.2]octanyl)]p-xylene] | 1.3±0.2 | 129 ± 20.7 | significant inhibition
C(CC[N+]12CCN(CC1)CC2)C[N+]12CCN(CC1)CC2 [TG26] | – | – | less effective than TG27
CCCCCCCCCCCCCCCC[N+]12CCN(CC1)CC2 [TA279, 1-aza-4-azonia-4-hexadecylbicyclo[2.2.2]octane] | 2.8±1.1 | 0.6 ± 0.1 | –
